From ChEMBL document CHEMBL3621168, “Elucidating new structural features of the triazole scaffold for the development of mPGES-1 inhibitors” (Medchemcomm, 2015)
pIC50: −log10 of the molar value.

Columns and labels:
Prostaglandin E synthase = target: T1, Prostaglandin E synthase (Homo sapiens, UniProt O14684); assay: Inhibition of mPGES1 isolated from human A549 cells after 15 mis by RP HPLC analysis; type: cell-free
T1 sequence (O14684 whole entry): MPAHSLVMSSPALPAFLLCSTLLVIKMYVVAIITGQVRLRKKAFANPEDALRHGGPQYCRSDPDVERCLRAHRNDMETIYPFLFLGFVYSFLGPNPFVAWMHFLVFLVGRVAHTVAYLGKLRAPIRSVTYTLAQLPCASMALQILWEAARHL

[1] = target: T2, Prostaglandin E synthase (Homo sapiens) (UniProt O14684); assay: Inhibition of mPGES1 isolated from human A549 cells at 10 uM after 15 mis by RP HPLC analysis; type: cell-free
T2 sequence (whole entry): T1 sequence (O14684 whole entry)

| SMILES | pIC50 (Prostaglandin E synthase) | inhibition [1] |
| --- | --- | --- |
| N#Cc1ccc(-n2cc(COc3cccc(C(F)(F)F)c3)nn2)cc1C(F)(F)F | < 4.52 | 20% |
| N#Cc1ccc(-n2nnc(COc3ccc([N+](=O)[O-])cc3C(F)(F)F)c2I)cc1C(F)(F)F | 6.15 |  |
| O=[N+]([O-])c1ccc(OCc2cn(-c3cccc(C(F)(F)F)c3)nn2)c(C(F)(F)F)c1 | < 4.52 | 20% |
| N#Cc1ccc(-n2cc(COc3ccc([N+](=O)[O-])cc3C(F)(F)F)nn2)cc1C(F)(F)F | < 4.52 | 20% |
| N#Cc1ccc(-n2cc(COc3ccc(C(F)(F)F)cc3)nn2)cc1C(F)(F)F | < 4.52 | 20% |
